Results: patent publication US20240225056A1, “Rhodotorula Capable of Efficiently Degrading Ethyl Carbamate and Application Thereof” (priority 2022, published 2024)

Test system: R. toruloides DL-XSY01
Assay: Antibiotic sensitivity test, disc diffusion method
Assay type: cell-based
Conditions: YPD-agar, 28° C., 24 h
Protocol: The antibiotic sensitivity spectrum of the R. toruloides DL-XSY01 was characterized by using a disc diffusion method. […] The above medium with each type of paper was statically cultured at 28° C. for 24 h, and then the diameter of an inhibition zone was measured and counted; and analysis was performed on the drug resistance R (≤14 mm), intermediate-phase I (14-20 mm) or sensitivity S (≥20 mm), with three replicates for each group.

| Molecule | Antibiotic sensitivity of DL-XSY01 (in words) | Antibiotic sensitivity of DL-XSY01 (inhibition zone class) |
| --- | --- | --- |
| CN[C@H](CC(C)C)C(=O)N[C@H]1C(=O)N[C@@H](CC(N)=O)C(=O)N[C@H]2C(=O)N[C@H]3C(=O)N[C@H](C(=O)N[C@H](C(=O)O)c4cc(O)cc(O)c4-c4cc3ccc4O)[C@H](O)c3ccc(c(Cl)c3)Oc3cc2cc(c3O[C@@H]2O[C@H](CO)[C@@H](O)[C@H](O)[C@H]2O[C@H]2C[C@](C)(N)[C@H](O)[C@H](C)O2)Oc2ccc(cc2Cl)[C@H]1O [Vancomycin] | sensitive | S (sensitivity S (≥20 mm)) |
| CN(C)[C@@H]1C(O)=C(C(N)=O)C(=O)[C@@]2(O)C(O)=C3C(=O)c4c(O)cccc4[C@@](C)(O)[C@H]3C[C@@H]12 [Tetracycline] | – | S (sensitivity S (≥20 mm)) |
| CC[C@H]1OC(=O)[C@H](C)[C@@H](O[C@H]2C[C@@](C)(OC)[C@@H](O)[C@H](C)O2)[C@H](C)[C@@H](O[C@@H]2O[C@H](C)C[C@H](N(C)C)[C@H]2O)[C@](C)(O)C[C@@H](C)C(=O)[C@H](C)[C@@H](O)[C@]1(C)O [Erythromycin] | sensitive | S (sensitivity S (≥20 mm)) |
| CC1=C(C(=O)O)N2C(=O)[C@@H](NC(=O)[C@H](N)c3ccccc3)[C@H]2SC1 [Cephalexin] | moderately sensitive | I (intermediate-phase I (14-20 mm)) |
| CC1(C)S[C@@H]2[C@H](NC(=O)[C@H](N)c3ccccc3)C(=O)N2[C@H]1C(=O)O [Ampicillin] | sensitive | S (sensitivity S (≥20 mm)) |
| CN(C)c1ccc(O)c2c1C[C@H]1C[C@H]3[C@H](N(C)C)C(O)=C(C(N)=O)C(=O)[C@@]3(O)C(O)=C1C2=O [Minocycline] | – | S (sensitivity S (≥20 mm)) |
| CC1(C)S[C@@H]2[C@H](NC(=O)Cc3ccccc3)C(=O)N2[C@H]1C(=O)O [Penicillin G] | sensitive | S (sensitivity S (≥20 mm)) |
| Cc1nnc(SCC2=C(C(=O)O)N3C(=O)[C@@H](NC(=O)Cn4cnnn4)[C@H]3SC2)s1 [Cefazolin] | sensitive | S (sensitivity S (≥20 mm)) |
| Gentamicin | sensitive | S (sensitivity S (≥20 mm)) |
| [H]/N=C(/N)N[C@H]1[C@H](O)[C@@H](O)[C@H](O[C@@H]2O[C@@H](C)[C@](O)(C=O)[C@H]2O[C@@H]2O[C@@H](CO)[C@H](O)[C@@H](O)[C@@H]2NC)[C@@H](N/C(N)=N\[H])[C@@H]1O [Streptomycin] | sensitive | S (sensitivity S (≥20 mm)) |
| NCC[C@H](O)C(=O)N[C@@H]1C[C@H](N)[C@@H](O[C@H]2O[C@H](CN)[C@@H](O)[C@H](O)[C@H]2O)[C@H](O)[C@H]1O[C@H]1O[C@H](CO)[C@@H](O)[C@H](N)[C@H]1O [Amikacin] | sensitive | S (sensitivity S (≥20 mm)) |
